# Measurements as given in patent US11547686B2 (priority 2017, dated 2023).
# Like-named read-outs stand apart in the source and are kept apart here. Marks after values point to notes of the source that are not given here.
# Experiments:
# [1] = system: somatic pain in a rat model; test: Hot plate test (somatic pain); assay type: in vivo, Sprague-Dawley rats; settings: rats; morphine 3 mg/kg s.c.; combination 50 mg/kg APAP; 40 mg/kg pregabalin IV infusion
# Experimental: Hot Plate Test: The hot plate test is a test that can be used to assess pain sensitivity in rodents. […] In the test, an animal is placed in a confined cylindrical space to restrict locomotion. The floor surface of the space is maintained at a temperature sufficiently hot to elicit an aversive response, but not so hot that tissue damage is induced, typically 50-56° C. The animal is monitored, and latency to paw licking or jumping is recorded. This test can be used to screen novel drugs or drug combinations for effects on pain detection threshold; substances with an analgesic effect can increase latency to licking/jumping, while substances with a hyperalgesic effect can decrease latency.
# The effect on somatic pain was tested in groups of 8 Male Sprague-Dawley rats.
# Vehicle and test agents were administered by intravenous infusion (IV-CI) over 15 minutes starting 30 minutes before Time 0 (15 minutes post infusion). Morphine was used as a positive control, and was administered (3 mg/kg) by subcutaneous administration 60 minutes before Time 0. […] The pain threshold of the rats was assessed based on the time (seconds) required to elicit a paw withdrawal response (latency).
# The data were analyzed by a one-way ANOVA followed by Dunnett's test for comparison between vehicle control and test article/positive control groups.
# [2] = system: red blood cells (rat whole unclotted blood); test: In vitro hemolysis test, rat blood; settings: 15 min at 37° C.
# in vivo = settings: for AUC(0-inf) / Cmax: rat, in vivo, iv
# Experimental: The active ingredients were dissolved in 0.9% saline (20 mL) to achieve the desired concentration. The saline and vial constituents were mixed with by gentle swirling until a clear solution was obtained. The obtained clear solution was filtered through a sterile 0.45 μm PVDF membrane syringe filter and then used for further studies.
# (§1) Blood samples were collected over a 24 h period, at which time the rats were exsanguinated, and the blood was collected for clinical pathology evaluation (chemistry, hematology, and coagulation). Finally, all the animals were necropsied (all exterior and interior cavities and organs were examined), and the site of infusion in the jugular vein, lung, liver, and kidney underwent histopathologic evaluation.
# [3] = system: red blood cells (human whole unclotted blood); test: In vitro hemolysis test, human blood; settings: 15 min at 37° C.
# [4] = system: red blood cells (mouse whole unclotted blood); test: In vitro hemolysis test, mouse blood; settings: 15 min at 37° C.
# [5] = Solubility of pregabalin and acetaminophen in water at different pH values (HPLC-UV); settings: for solubility: thermodynamic from solid
# Experimental: The pH was then adjusted to the required range. The concentration of the active ingredients was determined by HPLC-UV.
# [6] = system: red blood cells (dog whole unclotted blood); test: In vitro hemolysis test, dog blood; settings: 15 min at 37° C.
# [7] = Necropsy and histopathologic evaluation after intravenous infusion in rats; settings: n = 6 per group
# Experimental: as §1
# [8] = rats, 15 min IV infusion
# Experimental: as §1
smiles,measurement,setting,value
CN1CC[C@]23c4c5ccc(O)c4O[C@H]2[C@@H](O)C=C[C@H]3[C@H]1C5 [morphine],Onset of the analgesic effect,[1],near immediate
"CC(=O)Nc1ccc(O)cc1 [Acetaminophen, N-(4-hydroxyphenyl)acetamide]",% Hemolysis,[2]; APAP 5 mg/mL,6%
same,% Hemolysis,[2]; APAP 7.5 mg/mL,0%
same,% Hemolysis,[2]; APAP 10 mg/mL,2%
same,AUC(0-inf),"in vivo; 17 mg/kg, AUC0-∞ of acetaminophen",11500 ng·h/mL
same,Cmax,"in vivo; 17 mg/kg, Cmax of acetaminophen",18600 ng/mL
same,AUC(0-inf),"in vivo; 17 mg/kg, Equivalence (80%-125%) range of acetaminophen AUC0-∞",9190 to 14400 ng·h/mL
same,Cmax,"in vivo; 17 mg/kg, Equivalence (80%-125%) range of acetaminophen Cmax",14900 to 23300 ng/mL
same,Effect of the presence or absence of pregabalin on the pharmacokinetics of acetaminophen,"in vivo; rats, 15 min IV infusion",did not affect
same,% Hemolysis,[3]; APAP 5 mg/mL,2%
same,% Hemolysis,[3]; APAP 7.5 mg/mL,0%
same,% Hemolysis,[3]; APAP 10 mg/mL,6%
same,% Hemolysis,[4]; APAP 5 mg/mL,5%
same,% Hemolysis,[4]; APAP 7.5 mg/mL,5%
same,% Hemolysis,[4]; APAP 10 mg/mL,4%
same,solubility,"[5]; pH 4, aqueous buffer, Solubility of acetaminophen, water, pH 4, co-dissolved with pregabalin",~21 mg/mL
same,solubility,"[5]; pH 5, aqueous buffer, Solubility of acetaminophen, water, pH 5, co-dissolved with pregabalin",18.7 mg/mL
same,solubility,"[5]; pH 6, aqueous buffer, Solubility of acetaminophen, water, pH 6, co-dissolved with pregabalin",17.9 mg/mL
same,solubility,"[5]; pH 7, aqueous buffer, Solubility of acetaminophen, water, pH 7, co-dissolved with pregabalin",17.9 mg/mL
same,Difference in the solubility of acetaminophen,"[5]; pH range from 4-7, acetaminophen alone",no significant difference
same,Solubility of acetaminophen,"[5]; water, pH 4, co-dissolved with pregabalin",20.8 mg/mL
same,% Hemolysis,[6]; APAP 5 mg/mL,0%
same,% Hemolysis,[6]; APAP 7.5 mg/mL,0%
same,% Hemolysis,[6]; APAP 10 mg/mL,0%
"CC(C)C[C@H](CN)CC(=O)O [Pregabalin, (3S)-3-(Aminomethyl)-5-methylhexanoic acid]",Necropsy Observation: Lung Discolored,[7]; PGB 1.25 mg/kg,1
same,Necropsy Observation: Lung Focus,[7]; PGB 1.25 mg/kg,1
same,Necropsy Observation: Lung Discolored,[7]; PGB 5 mg/kg,0
same,Necropsy Observation: Lung Focus,[7]; PGB 5 mg/kg,2
same,% Hemolysis,[2]; PGB 0.75 mg/mL,2%
same,% Hemolysis,[2]; PGB 1.5 mg/mL,0%
same,% Hemolysis,[2]; PGB 3 mg/mL,2%
same,AUC(0-inf),"in vivo; 1.25 mg/kg, AUC0-∞ of pregabalin, rats, 15 min IV infusion, Pregabalin 1.25 mg/kg",6750 ng·h/mL
same,Cmax,"in vivo; 1.25 mg/kg, Cmax of pregabalin, rats, 15 min IV infusion, Pregabalin 1.25 mg/kg",2060 ng/mL
same,AUC(0-inf),"in vivo; 1.25 mg/kg, Equivalence (80%-125%) range of pregabalin AUC0-∞, rats, Pregabalin 1.25 mg/kg alone as reference",5400 to 8440 ng·h/mL
same,Cmax,"in vivo; 1.25 mg/kg, Equivalence (80%-125%) range of pregabalin Cmax, rats, Pregabalin 1.25 mg/kg alone as reference",1650 to 2580 ng/mL
same,AUC(0-inf),"in vivo; 5 mg/kg, AUC0-∞ of pregabalin, rats, 15 min IV infusion, Pregabalin 5 mg/kg",26100 ng·h/mL
same,Cmax,"in vivo; 5 mg/kg, Cmax of pregabalin, rats, 15 min IV infusion, Pregabalin 5 mg/kg",7910 ng/mL
same,AUC(0-inf),"in vivo; 5 mg/kg, Equivalence (80%-125%) range of pregabalin AUC0-∞, rats, Pregabalin 5 mg/kg alone as reference",20900 to 32700 ng·h/mL
same,Cmax,"in vivo; 5 mg/kg, Equivalence (80%-125%) range of pregabalin Cmax, rats, Pregabalin 5 mg/kg alone as reference",6330 to 9880 ng/mL
same,Change in the pharmacokinetic profile of pregabalin in the presence or absence of acetaminophen,"in vivo; rats, 15 min IV infusion",No change
same,% Hemolysis,[3]; PGB 0.75 mg/mL,0%
same,% Hemolysis,[3]; PGB 1.5 mg/mL,7%
same,% Hemolysis,[3]; PGB 3 mg/mL,1%
same,% Hemolysis,[4]; PGB 0.75 mg/mL,0%
same,% Hemolysis,[4]; PGB 1.5 mg/mL,4%
same,% Hemolysis,[4]; PGB 3 mg/mL,0%
same,solubility,"[5]; aqueous buffer, Solubility of pregabalin, water, pH range of 5-7, pregabalin alone",~31 mg/mL
same,solubility,"[5]; pH 4, aqueous buffer, Solubility of pregabalin, water, pH 4, co-dissolved with acetaminophen",54.4 mg/mL
same,solubility,"[5]; pH 4, aqueous buffer, Solubility of pregabalin, water, room temperature, pH 4, pregabalin alone",54.4 mg/mL
same,solubility,"[5]; pH 5, aqueous buffer, Solubility of pregabalin, water, pH 5, co-dissolved with acetaminophen",36.8 mg/mL
same,solubility,"[5]; pH 5, aqueous buffer, Solubility of pregabalin, water, room temperature, pH 5, pregabalin alone",32.4 mg/mL
same,solubility,"[5]; pH 6, aqueous buffer, Solubility of pregabalin, water, pH 6, co-dissolved with acetaminophen",35 mg/mL
same,solubility,"[5]; pH 6, aqueous buffer, Solubility of pregabalin, water, room temperature, pH 6, pregabalin alone",31 mg/mL
same,solubility,"[5]; pH 7, aqueous buffer, Solubility of pregabalin, water, pH 7, co-dissolved with acetaminophen",35 mg/mL
same,solubility,"[5]; pH 7, aqueous buffer, Solubility of pregabalin, water, room temperature, pH 7, pregabalin alone",30.6 mg/mL
same,Change in the solubility of pregabalin in the presence of acetaminophen,"[5]; pH range of 5-7, versus pregabalin alone",increase
same,% Hemolysis,[6]; PGB 0.75 mg/mL,0%
same,% Hemolysis,[6]; PGB 1.5 mg/mL,0%
same,% Hemolysis,[6]; PGB 3 mg/mL,1%
same,"ALBGLOB (albumin/globulin ratio, calculated)",[8]; PGB 1.25 mg/kg,1.4
same,ALP (alkaline phosphatase),[8]; PGB 1.25 mg/kg,99 U/L
same,ALT (alanine aminotransferase),[8]; PGB 1.25 mg/kg,45 U/L
same,APPT (Activated partial thromboplastin time),[8]; PGB 1.25 mg/kg,12.9 s
same,AST (aspartate aminotransferase),[8]; PGB 1.25 mg/kg,93 ** U/L
same,Albumin,[8]; PGB 1.25 mg/kg,4.0 g/dL
same,Basophils,[8]; PGB 1.25 mg/kg,80 µL⁻¹
same,Bilirubin,[8]; PGB 1.25 mg/kg,0.02 mg/dL
same,Calcium,[8]; PGB 1.25 mg/kg,11.4 mg/dL
same,Chloride,[8]; PGB 1.25 mg/kg,102 mEq/L
same,Cholesterol,[8]; PGB 1.25 mg/kg,94 mg/dL
same,Creatinine,[8]; PGB 1.25 mg/kg,0.47 mg/dL
same,Eosinophils,[8]; PGB 1.25 mg/kg,280 µL⁻¹
same,"GLOBUL (globulin, calculated)",[8]; PGB 1.25 mg/kg,2.8 g/dL
same,Glucose,[8]; PGB 1.25 mg/kg,166 mg/dL
same,Hematocrit,[8]; PGB 1.25 mg/kg,44.2%
same,Hemoglobin,[8]; PGB 1.25 mg/kg,14.2 g/dL
same,LGLUCLE (large unstained cell),[8]; PGB 1.25 mg/kg,100 µL⁻¹
same,Lymphocytes,[8]; PGB 1.25 mg/kg,9400 µL⁻¹
same,MCH (mean cell hemoglobin),[8]; PGB 1.25 mg/kg,17.8 pg
same,MCHC (mean cell hemoglobin concentration),[8]; PGB 1.25 mg/kg,32 g/dL
same,MCV (mean cell volume),[8]; PGB 1.25 mg/kg,55.8 fL
same,Monocytes,[8]; PGB 1.25 mg/kg,500 µL⁻¹
same,Neutrophils,[8]; PGB 1.25 mg/kg,1400 µL⁻¹
same,PHOS (inorganic phosphorus),[8]; PGB 1.25 mg/kg,10.6 mg/dL
same,Platelets,[8]; PGB 1.25 mg/kg,908000 µL⁻¹
same,Potassium,[8]; PGB 1.25 mg/kg,7.3 mEq/L
same,Protein,[8]; PGB 1.25 mg/kg,6.7 g/dL
same,Prothrombin time,[8]; PGB 1.25 mg/kg,16.8 s
same,RBC,[8]; PGB 1.25 mg/kg,7.93e+06 µL⁻¹
same,Reticulocytes,[8]; PGB 1.25 mg/kg,4.11 * %
same,Sodium,[8]; PGB 1.25 mg/kg,148 * mEq/L
same,Triglycerides,[8]; PGB 1.25 mg/kg,33 mg/dL
same,UREAN (blood urea nitrogen),[8]; PGB 1.25 mg/kg,19 mg/dL
same,WBC,[8]; PGB 1.25 mg/kg,11740 µL⁻¹
same,"ALBGLOB (albumin/globulin ratio, calculated)",[8]; PGB 5 mg/kg,1.4
same,ALP (alkaline phosphatase),[8]; PGB 5 mg/kg,97 U/L
same,ALT (alanine aminotransferase),[8]; PGB 5 mg/kg,51 U/L
same,APPT (Activated partial thromboplastin time),[8]; PGB 5 mg/kg,12.4 s
same,AST (aspartate aminotransferase),[8]; PGB 5 mg/kg,107 U/L
same,Albumin,[8]; PGB 5 mg/kg,3.9 g/dL
same,Basophils,[8]; PGB 5 mg/kg,80 µL⁻¹
same,Bilirubin,[8]; PGB 5 mg/kg,0.02 mg/dL
same,Calcium,[8]; PGB 5 mg/kg,11.5 mg/dL
same,Chloride,[8]; PGB 5 mg/kg,101 mEq/L
same,Cholesterol,[8]; PGB 5 mg/kg,93 mg/dL
same,Creatinine,[8]; PGB 5 mg/kg,0.44 mg/dL
same,Eosinophils,[8]; PGB 5 mg/kg,350 µL⁻¹
same,"GLOBUL (globulin, calculated)",[8]; PGB 5 mg/kg,2.8 g/dL
same,Glucose,[8]; PGB 5 mg/kg,150 mg/dL
same,Hematocrit,[8]; PGB 5 mg/kg,45.1%
same,Hemoglobin,[8]; PGB 5 mg/kg,14.4 g/dL
same,LGLUCLE (large unstained cell),[8]; PGB 5 mg/kg,80 µL⁻¹
same,Lymphocytes,[8]; PGB 5 mg/kg,10810 µL⁻¹
same,MCH (mean cell hemoglobin),[8]; PGB 5 mg/kg,18.3 pg
same,MCHC (mean cell hemoglobin concentration),[8]; PGB 5 mg/kg,32.1 g/dL
same,MCV (mean cell volume),[8]; PGB 5 mg/kg,57.1 fL
same,Monocytes,[8]; PGB 5 mg/kg,450 µL⁻¹
same,Neutrophils,[8]; PGB 5 mg/kg,1520 µL⁻¹
same,PHOS (inorganic phosphorus),[8]; PGB 5 mg/kg,10 ** mg/dL
same,Platelets,[8]; PGB 5 mg/kg,933000 µL⁻¹
same,Potassium,[8]; PGB 5 mg/kg,6.9 * mEq/L
same,Protein,[8]; PGB 5 mg/kg,6.7 g/dL
same,Prothrombin time,[8]; PGB 5 mg/kg,16.6 s
same,RBC,[8]; PGB 5 mg/kg,7.9e+06 µL⁻¹
same,Reticulocytes,[8]; PGB 5 mg/kg,4.7%
same,Sodium,[8]; PGB 5 mg/kg,147 mEq/L
same,Triglycerides,[8]; PGB 5 mg/kg,30 mg/dL
same,UREAN (blood urea nitrogen),[8]; PGB 5 mg/kg,19 mg/dL
same,WBC,[8]; PGB 5 mg/kg,13280 µL⁻¹
